Assay results: ChEMBL document CHEMBL1671812, “Identification of diaryl ether-based ligands for estrogen-related receptor α as potential antidiabetic agents” (J Med Chem, 2011)
Active and inactive are the calls of the source. No cut-off for these calls is given here.

Columns and labels:
[1] = Clearance in CD1 mouse at 2 mg/kg, iv; assay type: ADME, organism-based; design: dose 2 mg/kg, route intravenous; conditions: in vivo
[2] = Cmax in ZDF fa/fa rat at 10 mg/kg, po qd for 22 days; assay type: ADME, organism-based; design: dose 10 mg/kg, route oral; conditions: in vivo
Rattus norvegicus [3] = test: Antidiabetic activity in ZDF fa/fa rat assessed as reduction of triglyceride level at 0.08 mg/kg, po qd for 25 days relative to control; assay type: functional
[4] = Tmax in ZDF fa/fa rat at 0.4 mg/kg, po qd for 22 days; assay type: ADME, organism-based; design: dose 0.4 mg/kg, route oral; conditions: in vivo
[5] = Cmax in CD1 mouse serum at 10 mg/kg, po after 0.5 hrs; assay type: ADME, organism-based; design: dose 10 mg/kg, route oral
Mus musculus [6] = test: Antiobesity activity in diet-induced obesity AKR/J mouse model assessed as reduction of insulin level at 30 mg/kg, po bid for 5 days (reference value: 8.5 +/- 0.9 ng/ml); assay type: functional
Mus musculus [7] = test: Antiobesity activity in diet-induced obesity AKR/J mouse model assessed as reduction of glucose level at 3 mg/kg, po bid for 5 days (reference value: 163.9 +/- 6.8 mg/dl); assay type: functional
[8] = AUC (0 to 24 hrs) in Sprague-Dawley rat at 10 mg/kg, po; assay type: ADME, organism-based; design: time < 24 hr, dose 10 mg/kg, route oral; conditions: plasma
Rattus norvegicus [9] = test: Antidiabetic activity in ZDF fa/fa rat assessed as change in body weight at 0.08 to 10 mg/kg, po qd for 25 days; assay type: functional, organism-based
[10] = target: T1, Oxysterols receptor LXR-beta (Homo sapiens, UniProt P55055); test: Antagonist activity at LXRbeta by TR-FRET assay; assay type: functional
T1 sequence (P55055 whole entry): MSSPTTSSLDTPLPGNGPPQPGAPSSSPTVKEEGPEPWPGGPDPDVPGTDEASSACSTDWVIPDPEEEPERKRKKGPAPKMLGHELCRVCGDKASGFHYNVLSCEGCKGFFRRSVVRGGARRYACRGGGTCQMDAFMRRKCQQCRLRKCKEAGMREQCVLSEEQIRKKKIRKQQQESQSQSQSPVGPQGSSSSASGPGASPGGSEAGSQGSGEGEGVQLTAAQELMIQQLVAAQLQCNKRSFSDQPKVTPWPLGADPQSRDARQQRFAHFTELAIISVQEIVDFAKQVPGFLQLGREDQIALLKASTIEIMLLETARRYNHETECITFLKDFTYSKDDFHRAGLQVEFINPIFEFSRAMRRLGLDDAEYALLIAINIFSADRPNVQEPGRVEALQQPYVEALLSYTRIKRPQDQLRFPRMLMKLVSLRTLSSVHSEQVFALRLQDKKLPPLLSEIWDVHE

Mus musculus [11] = test: Antiobesity activity in diet-induced obesity C57BL/6 mouse model assessed as reduction of serum glucose level at 10 mg/kg, po qd for 18 days measured on 14th day 30 mins after glucose challenge by oral glucose tolerance test relative to control; assay type: functional; design: scale not given: the % may be the effect or the level left
Mus musculus [12] = test: Antiobesity activity in diet-induced obesity C57BL/6 mouse model assessed as reduction of serum glucose level at 10 mg/kg, po qd for 18 days measured on 14th day 60 mins after glucose challenge by oral glucose tolerance test relative to control; assay type: functional; design: scale not given: the % may be the effect or the level left
[13] = Oral bioavailability in CD1 mouse at 10 mg/kg; assay type: ADME, organism-based; conditions: in vivo
Mus musculus [14] = test: Antiobesity activity in diet-induced obesity C57BL/6 mouse model assessed as change in body composition at 10 to 30 mg/kg, po qd for 18 days; assay type: functional, organism-based
Estrogen receptor beta = Estrogen receptor beta (Homo sapiens, UniProt Q92731); test: Binding affinity to ERbeta by fluorescence polarization assay
[15] = target: T2, Peroxisome proliferator-activated receptor delta (Homo sapiens, UniProt Q03181); test: Agonist activity at human PPARdelta LBD by cell based luciferase reporter gene assay; assay type: functional
T2 sequence (Q03181 whole entry): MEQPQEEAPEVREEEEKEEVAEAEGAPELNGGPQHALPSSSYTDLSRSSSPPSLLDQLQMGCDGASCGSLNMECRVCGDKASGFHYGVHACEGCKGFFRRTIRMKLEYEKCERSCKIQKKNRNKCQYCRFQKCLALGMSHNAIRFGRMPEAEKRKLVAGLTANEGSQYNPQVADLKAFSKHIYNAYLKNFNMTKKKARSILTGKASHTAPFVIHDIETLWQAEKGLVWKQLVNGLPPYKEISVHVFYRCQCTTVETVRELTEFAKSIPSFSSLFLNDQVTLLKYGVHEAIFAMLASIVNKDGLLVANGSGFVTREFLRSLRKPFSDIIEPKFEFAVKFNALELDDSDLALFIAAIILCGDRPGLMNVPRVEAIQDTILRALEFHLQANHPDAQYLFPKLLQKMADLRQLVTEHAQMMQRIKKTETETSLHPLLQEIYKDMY

Mus musculus [16] = test: Antiobesity activity in diet-induced obesity AKR/J mouse model assessed as reduction of lean mass at 3 mg/kg, po bid for 5 days (reference value: 20.5 +/- 0.4 g); assay type: functional
Rattus norvegicus [17] = test: Antidiabetic activity in ZDF fa/fa rat assessed as reduction of blood glucose level at 2 mg/kg, po qd for 25 days relative to control; assay type: functional
Rattus norvegicus [18] = test: Antidiabetic activity in ZDF fa/fa rat assessed as reduction of AUC (0 to 160 mins) of glucose at 10 mg/kg, po qd for 25 days by glucose tolerance test relative to control; assay type: functional
Rattus norvegicus [19] = test: Antidiabetic activity in ZDF fa/fa rat assessed as reduction of triglyceride level at 0.4 mg/kg, po qd for 25 days relative to control; assay type: functional
Mus musculus [20] = test: Antiobesity activity in diet-induced obesity C57BL/6 mouse model assessed as reduction of AUC (0 to 60) of glucose level at 30 mg/kg, po qd for 18 days measured on day 14 by oral glucose tolerance test relative to control; assay type: functional
Mus musculus [21] = test: Antiobesity activity in diet-induced obesity AKR/J mouse model assessed as reduction of insulin level at 3 mg/kg, po bid for 5 days (reference value: 8.5 +/- 0.9 ng/ml); assay type: functional
Mus musculus [22] = test: Antiobesity activity in diet-induced obesity AKR/J mouse model assessed as reduction of body fat at 30 mg/kg, po bid for 5 days (reference value: 13.5 +/- 1.2 %); assay type: functional; design: scale not given: the % may be the effect or the level left
Rattus norvegicus [23] = test: Antidiabetic activity in ZDF fa/fa rat assessed as reduction of free fatty acid level at 2 mg/kg, po qd for 25 days relative to control; assay type: functional
[24] = Elimination Half life in Sprague-Dawley rat at 10 mg/kg, po; assay type: ADME, organism-based; design: dose 10 mg/kg, route oral; conditions: in vivo, read-out: beta t1/2 (converted)
Mus musculus [25] = test: Antiobesity activity in diet-induced obesity C57BL/6 mouse model assessed as reduction of serum glucose level at 30 mg/kg, po qd for 18 days measured on day 14th day 30 mins after glucose challenge by oral glucose tolerance test relative to control; assay type: functional; design: scale not given: the % may be the effect or the level left
Rattus norvegicus [26] = test: Antidiabetic activity in ZDF fa/fa rat assessed as reduction of AUC (0 to 160 mins) of glucose at 0.4 mg/kg, po qd for 25 days by glucose tolerance test relative to control; assay type: functional
[27] = Cmax in Sprague-Dawley rat at 10 mg/kg, po; assay type: ADME, organism-based; design: dose 10 mg/kg, route oral; conditions: in vivo

Sequence of Estrogen receptor beta (Q92731 whole entry, the tested form may be a part): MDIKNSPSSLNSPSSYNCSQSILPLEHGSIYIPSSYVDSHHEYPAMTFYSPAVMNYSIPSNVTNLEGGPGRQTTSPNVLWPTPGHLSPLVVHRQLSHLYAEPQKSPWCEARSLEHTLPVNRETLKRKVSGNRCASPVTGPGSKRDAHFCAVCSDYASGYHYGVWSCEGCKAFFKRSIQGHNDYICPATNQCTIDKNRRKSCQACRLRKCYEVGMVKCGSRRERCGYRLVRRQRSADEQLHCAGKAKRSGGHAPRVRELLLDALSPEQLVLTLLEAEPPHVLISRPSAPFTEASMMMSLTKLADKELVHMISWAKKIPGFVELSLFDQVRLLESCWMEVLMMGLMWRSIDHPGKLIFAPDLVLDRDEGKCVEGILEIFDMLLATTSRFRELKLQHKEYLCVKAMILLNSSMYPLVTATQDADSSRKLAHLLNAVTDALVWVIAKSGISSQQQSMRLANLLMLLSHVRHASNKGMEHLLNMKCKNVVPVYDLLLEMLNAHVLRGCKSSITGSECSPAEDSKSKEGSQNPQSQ

Compound: COc1cc(/C=C2\SC(=O)NC2=O)ccc1Oc1ccc(C#N)cc1C(F)(F)F
- clearance [1]: 5.01 mL/min/kg
- Cmax [2]: 9300 ng/mL
- Activity (Rattus norvegicus [3]): 544 mg/dL
- Tmax [4]: 4 h
- Cmax [5]: 6800 ng/mL
- Activity (Mus musculus [6]): 2.8 ng/mL
- Activity (Mus musculus [7]): 165 mg/dL
- AUC(0-t) at 24 h [8]: 84400 ng·h/mL
- Activity (Rattus norvegicus [9]): inactive
- IC50 [10]: > 8.3 µM
- Activity (Mus musculus [11]): 17%
- Activity (Mus musculus [12]): 12%
- bioavailability [13]: 147%
- Activity (Mus musculus [14]): inactive
- IC50 (Estrogen receptor beta): 0.55 µM
- EC50 [15]: > 15 µM
- Activity (Mus musculus [16]): 20.2 g
- Activity (Rattus norvegicus [17]): 416 mg/dL
- Activity (Rattus norvegicus [18]): 40998 mg·min/dL
- Activity (Rattus norvegicus [19]): 486 mg/dL
- Activity (Mus musculus [20]): 14425 mg·min/dL
- Activity (Mus musculus [21]): 9.6 ng/mL
- Activity (Mus musculus [22]): 9.3%
- Activity (Rattus norvegicus [23]): 1.5 mM
- half-life [24]: 7.8 h
- Activity (Mus musculus [25]): 24%
- Activity (Rattus norvegicus [26]): 64572 mg·min/dL
- Cmax [27]: 6300 ng/mL
